Measurements reported in ChEMBL document CHEMBL4138123, “Design, synthesis and biological evaluation of novel pyrazolochalcones as potential modulators of PI3K/Akt/mTOR pathway and inducers of apoptosis in breast cancer cells” (Eur J Med Chem, 2017).

Key:
Format in all cases: functional
CAKI-1 [1] = experiment: Cytotoxicity against human Caki1 cells assessed as cell growth at 0.1 uM after 48 hrs by sulforhodamine B assay relative to control; conditions: CAKI-1, 48 h, read-out: Activity
SNB-75 [2] = experiment: Cytotoxicity against human SNB75 cells assessed as cell growth at 100 uM after 48 hrs by sulforhodamine B assay relative to control; conditions: SNB-75, 48 h, read-out: Activity
LOX IMVI [3] = experiment: Cytotoxicity against human LOXIMVI cells assessed as cell growth at 1 uM after 48 hrs by sulforhodamine B assay relative to control; conditions: read-out: Activity
NCI-H322M = experiment: Cytotoxicity against human NCI-H322M cells assessed as cell growth at 10 uM after 48 hrs by sulforhodamine B assay relative to control; conditions: read-out: Activity
SK-MEL-2 [4] = experiment: Cytotoxicity against human SK-MEL-2 cells assessed as cell growth at 0.1 uM after 48 hrs by sulforhodamine B assay relative to control; conditions: SK-MEL-2, 48 h, read-out: Activity
SNB-75 [5] = experiment: Cytotoxicity against human SNB75 cells assessed as cell growth at 0.01 uM after 48 hrs by sulforhodamine B assay relative to control; conditions: SNB-75, 48 h, read-out: Activity
SNB-75 [6] = experiment: Cytotoxicity against human SNB75 cells assessed as cell growth at 10 uM after 48 hrs by sulforhodamine B assay relative to control; conditions: SNB-75, 48 h, read-out: Activity
LOX IMVI [7] = experiment: Cytotoxicity against human LOXIMVI cells assessed as cell growth at 0.01 uM after 48 hrs by sulforhodamine B assay relative to control; conditions: read-out: Activity
SF-295 [8] = experiment: Cytotoxicity against human SF295 cells assessed as cell growth at 0.01 uM after 48 hrs by sulforhodamine B assay relative to control; conditions: SF-295, 48 h, read-out: Activity
SF-295 [9] = experiment: Cytotoxicity against human SF295 cells assessed as cell growth at 100 uM after 48 hrs by sulforhodamine B assay relative to control; conditions: SF-295, 48 h, read-out: Activity
SF-295 [10] = experiment: Cytotoxicity against human SF295 cells assessed as cell growth at 1 uM after 48 hrs by sulforhodamine B assay relative to control; conditions: SF-295, 48 h, read-out: Activity
CAKI-1 [11] = experiment: Cytotoxicity against human Caki1 cells assessed as growth inhibition after 48 hrs by sulforhodamine B assay; conditions: CAKI-1, 48 h
SF-295 [12] = experiment: Cytotoxicity against human SF295 cells assessed as cell growth at 0.1 uM after 48 hrs by sulforhodamine B assay relative to control; conditions: SF-295, 48 h, read-out: Activity
CAKI-1 [13] = experiment: Cytotoxicity against human Caki1 cells assessed as cell growth at 100 uM after 48 hrs by sulforhodamine B assay relative to control; conditions: CAKI-1, 48 h, read-out: Activity
CAKI-1 [14] = experiment: Cytotoxicity against human Caki1 cells assessed as cell growth at 1 uM after 48 hrs by sulforhodamine B assay relative to control; conditions: CAKI-1, 48 h, read-out: Activity
LOX IMVI [15] = experiment: Cytotoxicity against human LOXIMVI cells assessed as cell growth at 0.1 uM after 48 hrs by sulforhodamine B assay relative to control; conditions: read-out: Activity
SK-MEL-2 [16] = experiment: Cytotoxicity against human SK-MEL-2 cells assessed as cell growth at 1 uM after 48 hrs by sulforhodamine B assay relative to control; conditions: SK-MEL-2, 48 h, read-out: Activity
SK-MEL-2 [17] = experiment: Cytotoxicity against human SK-MEL-2 cells assessed as cell growth at 100 uM after 48 hrs by sulforhodamine B assay relative to control; conditions: SK-MEL-2, 48 h, read-out: Activity
HOP-92 [18] = experiment: Cytotoxicity against human HOP92 cells assessed as cell growth at 1 uM after 48 hrs by sulforhodamine B assay relative to control; conditions: HOP-92, 48 h, read-out: Activity
LOX IMVI [19] = experiment: Cytotoxicity against human LOXIMVI cells assessed as cell growth at 100 uM after 48 hrs by sulforhodamine B assay relative to control; conditions: read-out: Activity
SNB-75 [20] = experiment: Cytotoxicity against human SNB75 cells assessed as growth inhibition after 48 hrs by sulforhodamine B assay; conditions: SNB-75, 48 h
HOP-92 [21] = experiment: Cytotoxicity against human HOP92 cells assessed as cell growth at 100 uM after 48 hrs by sulforhodamine B assay relative to control; conditions: HOP-92, 48 h, read-out: Activity
SK-MEL-2 [22] = experiment: Cytotoxicity against human SK-MEL-2 cells assessed as cell growth at 0.01 uM after 48 hrs by sulforhodamine B assay relative to control; conditions: SK-MEL-2, 48 h, read-out: Activity
LOX IMVI [23] = experiment: Cytotoxicity against human LOXIMVI cells assessed as cell growth at 10 uM after 48 hrs by sulforhodamine B assay relative to control; conditions: read-out: Activity
SNB-75 [24] = experiment: Cytotoxicity against human SNB75 cells assessed as cell growth at 0.1 uM after 48 hrs by sulforhodamine B assay relative to control; conditions: SNB-75, 48 h, read-out: Activity
HOP-92 [25] = experiment: Cytotoxicity against human HOP92 cells assessed as cell growth at 10 uM after 48 hrs by sulforhodamine B assay relative to control; conditions: HOP-92, 48 h, read-out: Activity
HOP-92 [26] = experiment: Cytotoxicity against human HOP92 cells assessed as growth inhibition after 48 hrs by sulforhodamine B assay; conditions: HOP-92, 48 h
SK-MEL-2 [27] = experiment: Cytotoxicity against human SK-MEL-2 cells assessed as cell growth at 10 uM after 48 hrs by sulforhodamine B assay relative to control; conditions: SK-MEL-2, 48 h, read-out: Activity
OVCAR-8 = experiment: Cytotoxicity against human OVCAR8 cells assessed as growth inhibition after 48 hrs by sulforhodamine B assay; conditions: OVCAR-8, 48 h
HOP-92 [28] = experiment: Cytotoxicity against human HOP92 cells assessed as cell growth at 0.01 uM after 48 hrs by sulforhodamine B assay relative to control; conditions: HOP-92, 48 h, read-out: Activity
SF-295 [29] = experiment: Cytotoxicity against human SF295 cells assessed as cell growth at 10 uM after 48 hrs by sulforhodamine B assay relative to control; conditions: SF-295, 48 h, read-out: Activity
HOP-92 [30] = experiment: Cytotoxicity against human HOP92 cells assessed as cell growth at 0.1 uM after 48 hrs by sulforhodamine B assay relative to control; conditions: HOP-92, 48 h, read-out: Activity
CAKI-1 [31] = experiment: Cytotoxicity against human Caki1 cells assessed as cell growth at 10 uM after 48 hrs by sulforhodamine B assay relative to control; conditions: CAKI-1, 48 h, read-out: Activity
SNB-75 [32] = experiment: Cytotoxicity against human SNB75 cells assessed as cell growth at 1 uM after 48 hrs by sulforhodamine B assay relative to control; conditions: SNB-75, 48 h, read-out: Activity
CAKI-1 [33] = experiment: Cytotoxicity against human Caki1 cells assessed as cell growth at 0.01 uM after 48 hrs by sulforhodamine B assay relative to control; conditions: CAKI-1, 48 h, read-out: Activity
SF-295 [34] = experiment: Cytotoxicity against human SF295 cells assessed as growth inhibition after 48 hrs by sulforhodamine B assay; conditions: SF-295, 48 h

**Q.** What does the source list for `COc1ccc(C(=O)/C=C/c2cc(-c3ccc4c(c3)OCO4)n[nH]2)cc1OC`?
**A.** growth at 0.1 µM (CAKI-1 [1]): 100%; growth at 100 µM (SNB-75 [2]): -100%; growth at 1 µM (LOX IMVI [3]): 97%; growth at 10 µM (NCI-H322M): -15%; growth at 0.1 µM (SK-MEL-2 [4]): 95%; growth at 0.01 µM (SNB-75 [5]): 78%; growth at 10 µM (SNB-75 [6]): -10%; growth at 0.01 µM (LOX IMVI [7]): 100%; growth at 0.01 µM (SF-295 [8]): 95%; growth at 100 µM (SF-295 [9]): -93%; growth at 1 µM (SF-295 [10]): 101%; LC50 (CAKI-1 [11]): 9.84 µM; TGI (CAKI-1 [11]): 4.33 µM; growth at 0.1 µM (SF-295 [12]): 98%; growth at 100 µM (CAKI-1 [13]): -65%; growth at 1 µM (CAKI-1 [14]): 89%; growth at 0.1 µM (LOX IMVI [15]): 99%; growth at 1 µM (SK-MEL-2 [16]): 107%; growth at 100 µM (SK-MEL-2 [17]): -68%; growth at 1 µM (HOP-92 [18]): 79%; growth at 100 µM (LOX IMVI [19]): -78%; LC50 (concentration killing 50% of cells) (SNB-75 [20]): 27.7 µM; TGI (SNB-75 [20]): 7.57 µM; growth at 100 µM (HOP-92 [21]): -61%; growth at 0.01 µM (SK-MEL-2 [22]): 98%; growth at 10 µM (LOX IMVI [23]): -62%; growth at 0.1 µM (SNB-75 [24]): 76%; growth at 10 µM (HOP-92 [25]): -8%; TGI (HOP-92 [26]): 8.11 µM; CC50 (HOP-92 [26]; read-out: LC50 (the source's name)): 62.2 µM; growth at 10 µM (SK-MEL-2 [27]): 39%; LC50 (OVCAR-8): 40.2 µM; TGI (OVCAR-8): 5.82 µM; growth at 0.01 µM (HOP-92 [28]): 85%; growth at 10 µM (SF-295 [29]): -27%; growth at 0.1 µM (HOP-92 [30]): 87%; growth at 10 µM (CAKI-1 [31]): -51%; growth at 1 µM (SNB-75 [32]): 76%; growth at 0.01 µM (CAKI-1 [33]): 93%; LC50 (SF-295 [34]): 22.2 µM; TGI (SF-295 [34]): 6.15 µM
